Source: the supplement of paper PMC11061612

Experiments:
[1] = tested on: C3A (Hepatocellular Carcinoma); assay: combination Emax (second highest fraction inhibited in the dose matrix, 72 h); higher = more inhibition; extreme values may be limits of the assay
Summary of the method: (§1)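 Cell lines grown in DMEM/F12 or RPMI with 10% FBS were plated in 1536-well plates and held 24 hours at 37°C, 5% CO2 before 72 hours of exposure to two-drug dose matrices, with DMSO typically at 0.2%. CellTiter-Glo 2.0 luminescence gave viability, which was converted to inhibition. Vehicle wells were set to 0 and blank wells to 1. Combination Emax is the second-highest inhibition in the matrix, and Bliss excess is the observed combination effect minus the expected EA + EB − EA·EB, where EA and EB are the single-agent effects.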

[2] = tested on: IHH-4 (Thyroid Gland Carcinoma); assay: as above
Summary of the method: as §1

[3] = tested on: KM-H2 (Hodgkin's Lymphoma); assay: as above
Summary of the method: as §1

[4] = tested on: LS-513 (Colorectal Carcinoma); assay: as above
Summary of the method: as §1

[5] = tested on: MDA-MB-157 (Breast Carcinoma); assay: as above
Summary of the method: as §1

[6] = tested on: EM-2 (Chronic Myelogenous Leukemia); assay: as above
Summary of the method: as §1

[7] = tested on: SN12C (Kidney Carcinoma); assay: as above
Summary of the method: as §1

[8] = tested on: DOV13 (Ovarian Carcinoma); assay: as above
Summary of the method: as §1

[9] = tested on: NCI-H1793 (Lung Adenocarcinoma); assay: as above
Summary of the method: as §1

[10] = tested on: IHH-4 (Thyroid Gland Carcinoma); assay: Bliss excess, mean over the matrix (fraction); higher = more synergy
Summary of the method: as §1

[11] = tested on: NCI-H1781 (Lung Adenocarcinoma); assay: as above
Summary of the method: as §1

[12] = tested on: SNU-C5 (Colorectal Carcinoma); assay: as above
Summary of the method: as §1

[13] = tested on: CTV-1 (T-Lymphoblastic Leukemia); assay: as above
Summary of the method: as §1

[14] = tested on: SN12C (Kidney Carcinoma); assay: as above
Summary of the method: as §1

[15] = tested on: KATOIII (Gastric Carcinoma); assay: as above
Summary of the method: as §1

[16] = tested on: IGR-1 (Melanoma); assay: as above
Summary of the method: as §1

[17] = tested on: HPAC (Pancreatic Carcinoma); assay: as above
Summary of the method: as §1

[18] = tested on: 697 (B-Lymphoblastic Leukemia); assay: as above
Summary of the method: as §1

[19] = tested on: SW1783 (Low Grade Glioma); assay: as above
Summary of the method: as §1

[20] = tested on: TGBC24TKB (Biliary Tract Carcinoma); assay: as above
Summary of the method: as §1
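Wherever Bliss excess, mean over the matrix is given: after 72 h of two-drug dosing.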

Structure (SMILES) | combination Emax [1] | combination Emax [2] | combination Emax [3] | combination Emax [4] | combination Emax [5] | combination Emax [6] | combination Emax [7] | combination Emax [8] | combination Emax [9] | Bliss excess [10] | Bliss excess [11] | Bliss excess [12] | Bliss excess [13] | Bliss excess [14] | Bliss excess [15] | Bliss excess [16] | Bliss excess [17] | Bliss excess [18] | Bliss excess [19] | Bliss excess [20]
Cc1cc2ncnn2cc1Nc1ncc2c(n1)n(C1CCOCC1)c(=O)n2C [AZD7648] + CCN(CCO)CCCOc1ccc2c(Nc3cc(CC(=O)Nc4cccc(F)c4)[nH]n3)ncnc2c1 [AZD2811] (first compound max 10 µM, 7x7, partner max 1 µM) | 0.269 | 0.454 | 0.209 | 0.507 | 0.234 | 0.878 | 0.262 | 0.426 | 0.26 | 0.0429 | 0.0239 | 0.0093 | 0.0709 | -0.01 | -0.0526 | -0.0224 | -0.032 | 0.018 | 0.0063 | -0.0157
CCN(CCO)CCCOc1ccc2c(Nc3cc(CC(=O)Nc4cccc(F)c4)[nH]n3)ncnc2c1 [AZD2811] + O=C(c1cc(Cc2n[nH]c(=O)c3ccccc23)ccc1F)N1CCN(C(=O)C2CC2)CC1 [Olaparib] (first compound max 1 µM, 7x7, partner max 10 µM) | 0.253 | 0.459 | 0.384 | 0.404 | 0.251 | 0.822 | 0.273 | 0.483 | 0.0897 | 0.0229 | -0.0293 | -0.0041 | 0.0712 | 0.0151 | -0.0332 | -0.0059 | 0.0032 | 0.0165 | -0.0423 | -0.0102
Cc1cc2ncnn2cc1Nc1ncc2c(n1)n(C1CCOCC1)c(=O)n2C [AZD7648] + C[C@@H]1COCCN1C2=NC(=NC(=C2)C3(CC3)[S@](=N)(=O)C)C4=C5C=CNC5=NC=C4 [AZD6738] (first compound max 10 µM, 7x7, partner max 10 µM) | 0.548 | 0.756 | 0.774 | 0.762 | 0.881 | 0.957 | 0.313 | 0.838 | 0.36 | 0.0366 | 0.103 | 0.0455 | -0.0024 | 0.0264 | -0.064 | 0.0074 | 0.0187 | -0.009 | 0.0913 | 0.0117
CCc1c2c(nc3ccc(O)cc13)-c1cc3c(c(=O)n1C2)COC(=O)[C@]3(O)CC [SN-38] + CN(C)CCCOc1ccc(-c2ccc3ncc4c(c3c2)n(C2CCOCC2)c(=O)n4C)cn1 [AZD0156] (first compound max 0.3 µM, 7x7, partner max 1 µM) | 0.557 | 1 | 0.907 | 0.526 | 0.742 | 0.985 | 0.738 | 0.936 | 0.505 | 0.0457 | 0.0554 | 0.036 | 0.0414 | 0.011 | -0.0305 | 0.0179 | 0.0584 | 0.0689 | -0.039 | 0.0476
C[C@@H](c1ccc2nccn2c1)n1nnc2ncc(-c3cnn(C)c3)nc21 [Savolitinib] + CC1(C)CCC(CN2CCN(c3ccc(C(=O)NS(=O)(=O)c4ccc(NCC5CCOCC5)c([N+](=O)[O-])c4)c(Oc4cnc5[nH]ccc5c4)c3)CC2)=C(c2ccc(Cl)cc2)C1 [Venetoclax] (first compound max 1 µM, 7x7, partner max 1 µM) | 0.148 | 0.0656 | 0.15 | 0.0791 | 0.11 | 0.132 | 0.219 | 0.143 | 0.193 | -0.0399 | -0.0702 | -0.0596 | -0.0245 | -0.0152 | -0.0364 | -0.0583 | -0.084 | -0.114 | -0.0442 | -0.0283
COc1nnc2ccc(N3CCC(c4ccc(OCCN5CCN(C)C(=O)[C@H]5C)cc4)CC3)nn12 [AZD5153] + Cc1c2c(nn1C)CSCc1cc(n(C)n1)CSc1cc(c3ccccc3c1)OCCCc1c(C(=O)O)n(C)c3c-2c(Cl)ccc13 [AZD5991] (first compound max 1 µM, 7x7, partner max 1 µM) | 0.559 | 0.544 | 0.451 | 0.644 | 0.993 | 0.988 | 0.309 | 0.487 | 0.288 | -0.0329 | 0.0028 | -0.0417 | -0.0515 | -0.0285 | -0.0765 | 0.0094 | -0.0105 | -0.0558 | -0.0024 | 0.0447
Cn1cnc2c(F)c(Nc3ccc(Br)cc3Cl)c(C(=O)NOCCO)cc21 [Selumetinib] + CCN(CCO)CCCOc1ccc2c(Nc3cc(CC(=O)Nc4cccc(F)c4)[nH]n3)ncnc2c1 [AZD2811] (first compound max 10 µM, 7x7, partner max 1 µM) | 0.494 | 0.586 | 0.168 | 0.85 | 0.215 | 0.88 | 0.237 | 0.4 | 0.203 | -0.0209 | 0.0045 | 0.038 | 0.0436 | -0.0444 | -0.0148 | -0.007 | 0.0816 | 0.0059 | -0.0559 | 0.003
Cc1c2c(nn1C)CSCc1cc(n(C)n1)CSc1cc(c3ccccc3c1)OCCCc1c(C(=O)O)n(C)c3c-2c(Cl)ccc13 [AZD5991] + C[C@@H](Nc1cc(F)cc(F)c1)c1cc(C(=O)N(C)C)cc2c(=O)cc(N3CCOCC3)oc12 [AZD8186] (first compound max 1 µM, 7x7, partner max 3 µM) | 0.292 | 0.234 | 0.11 | 0.255 | 0.876 | 0.259 | 0.246 | 0.381 | 0.263 | 0.0184 | 0.0182 | 0.0464 | -0.0144 | -0.0725 | -0.0132 | -0.0031 | -0.0297 | -0.0743 | 0.0037 | 0.0027
C=CCn1c(=O)c2cnc(Nc3ccc(N4CCN(C)CC4)cc3)nc2n1-c1cccc(C(C)(C)O)n1 [AZD1775] + C1CN(CCC1(C(=O)N[C@@H](CCO)C2=CC=C(C=C2)Cl)N)C3=NC=NC4=C3C=CN4 [Capivasertib] (first compound max 3 µM, partner max 3 µM) | 0.62 | 0.91 | 0.949 | 0.81 | 0.837 | 0.948 | 0.359 | 0.775 | 0.428 | -0.005 | -0.096 | -0.034 | 0.0399 | -0.0516 | -0.0773 | 0.011 | -0.0611 | 0.0337 | -0.0787 | -0.034
COc1cccc(OCCCN)c1-c1cc(Nc2cnc(C#N)cn2)n[nH]1 [Prexasertib] + Cc1cc2ncnn2cc1Nc1ncc2c(n1)n(C1CCOCC1)c(=O)n2C [AZD7648] (first compound max 1 µM, 7x7, partner max 10 µM) | 0.611 | 0.947 | 0.924 | 0.848 | 0.961 | 0.99 | 0.387 | 0.914 | 0.432 | -0.0109 | 0.0024 | -0.0495 | -0.0495 | -0.0816 | 0.0048 | 0.0116 | -0.0074 | -0.0293 | -0.0281 | -0.0412
COc1cc2ncnc(Nc3ccc(F)c(Cl)c3)c2cc1OCCCN1CCOCC1 [Gefitinib] + CC(C)n1c(=O)n(C)c2cnc3cc(F)c(-c4ccc(OCCCN5CCCCC5)nc4)cc3c21 [AZD1390] (first compound max 10 µM, 7x7, partner max 0.3 µM) | 0.377 | 0.0356 | 0.19 | 0.354 | 0.125 | 0.174 | 0.21 | 0.168 | 0.143 | -0.043 | -0.0801 | -0.0751 | -0.0468 | -0.0255 | -0.0113 | -0.006 | -0.0607 | -0.0787 | -0.0571 | -0.0379
COc1nnc2ccc(N3CCC(c4ccc(OCCN5CCN(C)C(=O)[C@H]5C)cc4)CC3)nn12 [AZD5153] + CC1(C)CCC(CN2CCN(c3ccc(C(=O)NS(=O)(=O)c4ccc(NCC5CCOCC5)c([N+](=O)[O-])c4)c(Oc4cnc5[nH]ccc5c4)c3)CC2)=C(c2ccc(Cl)cc2)C1 [Venetoclax] (first compound max 1 µM, 7x7, partner max 1 µM) | 0.453 | 0.498 | 0.377 | 0.568 | 0.498 | 0.918 | 0.318 | 0.477 | 0.248 | -0.0621 | -0.0599 | -0.077 | -0.0322 | -0.0343 | -0.0861 | -0.0221 | -0.0507 | -0.0358 | -0.0347 | -0.0456
CN(C)CCCOc1ccc(-c2ccc3ncc4c(c3c2)n(C2CCOCC2)c(=O)n4C)cn1 [AZD0156] + C=CCn1c(=O)c2cnc(Nc3ccc(N4CCN(C)CC4)cc3)nc2n1-c1cccc(C(C)(C)O)n1 [AZD1775] (first compound max 1 µM, partner max 1 µM) | 0.524 | 0.821 | 0.953 | 0.827 | 0.673 | 0.902 | 0.242 | 0.814 | 0.387 | 0.0247 | -0.0014 | -0.0296 | -0.0169 | -0.0717 | -0.064 | -0.031 | -0.0284 | 0.0183 | -0.0624 | -0.0224
Cc1c2c(nn1C)CSCc1cc(n(C)n1)CSc1cc(c3ccccc3c1)OCCCc1c(C(=O)O)n(C)c3c-2c(Cl)ccc13 [AZD5991] + Cc1cc2ncnn2cc1Nc1ncc2c(n1)n(C1CCOCC1)c(=O)n2C [AZD7648] (first compound max 1 µM, 7x7, partner max 10 µM) | 0.248 | 0.35 | 0.172 | 0.319 | 0.708 | 0.446 | 0.269 | 0.458 | 0.41 | -0.0281 | -0.105 | -0.0085 | -0.0169 | -0.0335 | -0.0305 | -0.0642 | -0.0679 | -0.0603 | -0.0408 | -0.0102
